Compound | melting point [°C]
O=C1C2CCCC2=Nc2ccc(F)cc2N1Cc1ccccc1 (stereo unspecified) | 158 to 159
CCCOc1ccccc1-c1nc2nc(OC)nnc2c(=O)[nH]1 | 234 to 235
CS(=O)(=O)c1ccc(-c2c(-c3ccc(F)cc3)nn3c(-c4ccc(F)cc4)coc23)cc1 | 289 to 291
Cc1ccc2sc3ncc(C(=O)Nc4nnn[nH]4)c(=O)n3c2c1 | > 300
COCC1CN(c2ccc(C3CCC4(CC3)OCCO4)cn2)C(=O)O1 (racemic) | 117 to 121
c1cc2cc(-n3cnnc3)ncc2[nH]1 | 254 to 257
CC(=O)OC1CCC2(C)C(=CCC3C2CCC2(C)C(C(C)CC(F)(F)CC(C)(C)O)CCC32)C1 (stereo unspecified) | 168 to 170
CC(=O)c1cc(-c2cccc(Cl)c2)ccc1N | 89 to 90
CCCCCCCCCCOc1ccc(C(=O)c2cccc(C(=O)O)c2)cc1Cc1nnn[nH]1 | 147 to 150
COC(=O)c1c(C(=O)OC)c(-c2ccc(F)c(F)c2)n2c1Cc1ccccc1C2 | 142 to 144
CCNC1=NS(=O)(=O)c2cc(Cl)sc2N1 | 274 to 275
COc1cc2c(cc1OC)-c1cc(OC)c(OC)c3c1C(C2)CN(C)C3 (stereo unspecified) | 170 to 177
COCCN1CCN(CCc2ccc(Nc3ncc4c(n3)-c3ccccc3C(c3ccccc3C(F)(F)F)C4)cc2)CC1 (stereo unspecified) | 139 to 140
CCCCOc1cc2c(c3c1OC(C)(C)C3)C(c1ccccc1)=NC(C)(C)C2 | 99 to 101
CC(C)(C)OC(=O)CCc1cc(S(C)(=O)=O)cc(-c2nc(=O)c3ccc(F)cc3s2)n1 | 178
Fc1cccc(CC2(Cc3ccncc3)c3cccnc3-c3ncccc32)n1 | 180 to 182
CCCc1c(S)ccc2c(=O)c(C(=O)OC)coc12 | 98 to 99
CCOc1ccccc1C=[N+]([O-])C(C)(C)C | 58.3
CCOC(=O)c1c(O)c2cc(F)ccc2n(Cc2ccccc2)c1=O | 129
O=C(O)CNC(=O)NC(CS)Cc1ccccc1 (single isomer, unassigned; (+)) | 110
COc1cc2c(cc1OC)CN(CCCc1ccc(NC(=O)c3cccc4c(=O)c5cccc(OC)c5[nH]c34)cc1)CC2 | 135
CC1(C)CC(S(=O)(=O)Cc2c(C(F)(F)F)nn(C(F)F)c2Cl)=NO1 | 126 to 127
CCC(N)=C(C(C)=O)c1[nH]c2ccccc2c1C(O)CN(C)C (stereo unspecified) | 90 to 104
O=C(O)C1=Cc2cc(Cl)c(Oc3ccccc3)cc2OC1C(F)(F)F (stereo unspecified) | 220 to 222

Compound | melting point [°C]
COC(=O)CC[C@H]1CC[C@@H](n2c(C)nn(-c3ccc(C#N)cc3)c2=O)CC1 | 92 to 96
CCn1c2ccccc2c2cc([N+](=O)[O-])ccc21 | 118 to 120
CN(C)c1nc(N)nc2nc[nH]c12 | 254 to 256
CC(=O)Nc1ccccc1C(=O)C1CCCCC1 | 66
COc1ccc2oc(-c3csc(C)n3)cc2c1 | 136 to 137
COc1ccc2c(c1)-c1noc(N3CCCNCC3)c1CC2 | 106 to 109
COc1ccc2c(c1)Oc1c(ccc(OC)c1C=O)C2(C)C | 84.5 to 86
Oc1ccc2[nH]cc(CCCCN3CCN(c4ccc5c(c4)CCCO5)CC3)c2c1 | 220 to 222
COC(=O)C1=C(C)NC(C)=C(C(=O)NC(C)C)C1c1ccccc1[N+](=O)[O-] (stereo unspecified) | 203 to 206
O=C(O)c1ccccc1C(=O)Nc1ccc(C(=O)N2CCCC(O)c3cc(Cl)ccc32)cn1 (stereo unspecified) | 153 to 155
O=C(Cc1ccc(Cl)c(Cl)c1)N1CCN2CCCC[C@@H]21 | 102 to 104
O=C(CCN1CCN(c2cccc(Cl)c2Cl)CC1)N1CCc2ccccc21 | 157 to 158
CCNC(=S)OCCOc1ccc(Oc2ccc(F)cc2)cc1 | 73 to 75
O=C1C(CCO)Oc2ccc(-c3ccccc3)cc2N1Cc1cccc(Cl)c1 (stereo unspecified) | 119 to 121
CCCCc1ncc(/C=C(\Cc2ccccc2)C(=O)O)n1Cc1c(F)cccc1Cl | 204 to 206
Cc1c(/C=C/C(=O)c2ccc3ccccc3c2)ncn1C(c1ccccc1)(c1ccccc1)c1ccccc1 | 194 to 197
NC(=O)C1CN1Cc1ccccc1 (stereo unspecified) | 114 to 116
O=c1[nH]c(NCCCN(Cc2ccccc2)c2ccccn2)ncc1Cc1ccncc1 | 87 to 89
COc1cc(C)cc(C(=O)NC(C)P(=O)(O)O)c1C1=CC(=O)c2c(O)cccc2C1=O (stereo unspecified) | > 300
CCCNC(=O)c1nc(-c2ccccc2)c(-c2ccc(=O)n(CC)n2)s1 | 106 to 108
COc1cc(O)c(C(=O)C=Cc2cccnc2)c(OC)c1 | 158
CN1CCc2c(-c3ccc(S(=O)(=O)N(C)C)cc3)cc3c(c2C1)N(C)C(=O)C3=O | 232 to 240
CN(C)S(=O)(=O)N[C@@H](Cc1ccc(Nc2nccc3cnccc23)cc1)C(=O)O | 211
CC(=O)OC1CSC(Oc2cccnc2-c2ccoc2)C(OC(C)=O)C1OC(C)=O (stereo unspecified) | 185

Compound | melting point [°C]
Cc1oc(-c2ccccc2)nc1CCc1nc(COc2cccc(CC(=O)O)c2)co1 | 127 to 128
CN(C(=O)c1cc(C(F)(F)F)cc(C(F)(F)F)c1)C(CC(=O)O)Cc1ccc2ccccc2c1 (stereo unspecified) | 128 to 130
COc1ccc(N(C=C(C#N)C#N)N=C(C#N)C#N)cc1 | 143 to 145
CC(C)CCN1C(=O)C(N)C(=O)N(c2ccccc2F)c2ccccc21 (stereo unspecified) | 125 to 160
CC(C)C(=O)N1CCN(c2ccc(NC(=O)c3ccccn3)cc2Cl)CC1 | 156 to 158
c1ccc(Oc2nnns2)cc1 | 35 to 36
Oc1cccc(C2CCCN(CCCc3ccccc3)C2)c1 (stereo unspecified) | 119 to 120
CCC1(CCCCN2CCN(c3ccccn3)CC2)C(=O)Nc2ccc(C)cc21 (stereo unspecified) | 168 to 170
CC(C)c1ccc(S(=O)(=O)Nc2nc(-c3cccc([N+](=O)[O-])c3)cs2)nc1 | 208 to 210
CCCc1nn(-c2ccc(C(F)(F)F)cn2)cc1CCCOc1cc(CCC(=O)O)n(C2CCCCC2)n1 | 164 to 165
CC(C)(C)OP(=O)(Cc1ccc(Br)cc1)OC(C)(C)C | 45
COc1cc(OC)nc(NC(=O)NS(=O)(=O)c2c(C)nsc2OCC(Cl)(Cl)Cl)n1 | 176 to 180
O=[N+]([O-])c1cc(C(F)(F)C(F)(F)C(F)(F)/C=C/C(F)(F)C(F)(F)C(F)(F)c2ccc(O)c([N+](=O)[O-])c2)ccc1O | 122 to 123
CCCc1c(O)c(C(C)=O)cc(Cl)c1OCCCOc1ccc2ccc(OCC(=O)OC)cc2c1C(C)=O | 121 to 124
N#Cc1cccc(C2=Nc3cc(O)c(-c4ccc(F)cc4)cc3NC(=O)C2)c1 | > 250
COc1cc2c(cc1-c1cccc(F)n1)-c1c(-c3cncs3)c3c(n1CC2)C(=O)N(C(C)(C)C)CCOC3 | 232 to 234
O[C@@H]1CN=C(c2ccccc2)O[C@H]1c1ccccc1 (racemic) | 135
O=C(NC1CC1)C(O)=CC(=O)c1ccc(Cc2ccc(F)cc2)o1 | 116 to 117
CSc1nn2c(N(C)C)cc(C)nc2c1S(=O)(=O)c1ccccc1 | > 230
CC(Br)C(=O)c1ccc(O)cc1 (stereo unspecified) | 95 to 97
O=S(=O)(c1ccc(Cl)cc1)c1ccc(-c2ccc(O)cc2)cc1 | 268 to 270
CCOC(=O)CSc1nc(Cl)cc(NCc2ccc(C)cc2C)n1 | 95 to 98
Nc1cc(Cl)nc(C(=O)NOCc2ccc(F)cc2)c1Cl | 209 to 211
CCC1CC(=O)N(Cc2ccc(C(=O)NC3CCCC3)cc2)N=C1c1ccc(OC)c(OC2CCCC2)c1 (stereo unspecified) | 73

Compound | melting point [°C]
CC1CCN(c2cc(F)cc(C(=O)Nc3ccc(Oc4ccnc(N5CCOCC5)n4)c4ccccc34)c2)CC1 | 88 to 89
OC1OC(C2(c3ccccc3)CN2)N2CC12c1ccccc1 (stereo unspecified) | 53 to 55
CC(C)c1ccc(-n2c(CC(=O)O)c(C(=O)O)c3cc(Oc4cccc(Cl)c4)ccc32)cc1 | 176 to 182
COc1cc(OC)nc(Sc2c(NS(=O)(=O)CC#N)nc(C)n2C)n1 | 223 to 225
CC(C)c1nc(C(C)C)c(CCc2ccccc2)c(-c2ccc(F)cc2)c1CO | 158 to 159
COC(=O)c1c(SCc2ccc(OC)cc2)ncn1Cc1cc2c(cc1Cl)OCO2 | 123
CCOCCn1c(N2CCCN(CCC3(c4ccccc4)CCN(C(=O)c4cc(OC)c(OC)c(OC)c4)C3)CC2)nc2ccccc21 (stereo unspecified) | 82 to 94
Cc1cc(C)cc(NCc2ccc3nc(NCCCN4CC(C)OC(C)C4)n(Cc4nc(C)ccc4O)c3c2)c1 (stereo unspecified) | 192
COc1ccccc1CC(C)NCC(O)c1cccc(Cl)c1 (stereo unspecified) | 85 to 87
O=c1[nH]cc(Cc2cccnc2)cc1[N+](=O)[O-] | 216 to 217
CC1(C)CCC(C)(C)c2cc(-c3cc(-c4ccc(C(=O)O)cc4)ccc3OCC(O)CO)ccc21 (stereo unspecified) | 258
O=C1Nc2ccc(Br)cc2C1c1ncnc2c1cnn2C1CCCC1 (stereo unspecified) | 287 to 290
Brc1ccc(Br)c2nsnc12 | 181 to 183
CS(=O)(=O)c1ccc(C(=O)C2C(=O)N(C(N)=O)c3ccc(Cl)cc32)s1 (stereo unspecified) | 212 to 214
O=CCC(F)(F)CN1C(=O)c2ccccc2C1=O | 76 to 78
CSC1C(=O)CC2C3CCC4=CC(=O)C=CC4(C)C3(F)C(OC(C)=O)CC12C (stereo unspecified) | 235 to 237
CCCN1CCC(n2nc(-c3c(-c4ccccc4)nn4ccccc34)ccc2=O)CC1 | 104 to 106
Cc1sc(NS(=O)(=O)c2cccc(Cl)c2C)nc1CC(=O)N1CCOCC1 | 194 to 195
COc1cc(C)nc2c(OC)cc(Br)cc12 | 167 to 168
NCC1CCn2c(cc3ccccc32)C1 (stereo unspecified) | 85 to 90
Cc1cc(C2=NOC(C)(c3cc(Cl)cc(Cl)c3)C2)ccc1C(=O)NCC(O)CO (stereo unspecified) | 98
COC(=O)C=C1C(=O)N(C)C(=O)N1C | 49.5
O=C(N[C@H]1CCC(=O)N2CCC[C@@H](C(=O)O)N2C1=O)OCC1c2ccccc2-c2ccccc21 | 120 to 126
Nc1sc(CCC(=O)O)cc1C(=O)c1ccccc1Cl | 170 to 173
